{"source": "patent US10441681B2", "about": "“Materials and methods for nerve grafting” (University of Florida Research Foundation, Inc., priority 2001, dated 2019)", "key": {"MMP": {"tested_on": "MMP", "assay": "In situ zymography of nerve explants (net gelatinolytic activity)", "type": "biochemical, rat", "details": "nerves cultured 2-day, 2% serum in the presence of GM6001", "experimental": "In the control condition, the MMP inhibitor EDTA (30 mM) was included in the reaction buffer. After incubation for 24 h at 37° C., the sections were rinsed with PBS and fixed with 4% paraformaldehyde in phosphate buffer. The sections were rinsed with water and mounted using Citifluor."}, "Schwann cell cultures": {"tested_on": "Schwann cell cultures", "assay": "Treatment of isolated Schwann cell cultures (toxicity)", "type": "cell-based"}, "[1]": {"tested_on": "embryonic chick DRG neurons", "assay": "Cryoculture assay of nerve explant cultures (predegeneration)", "type": "cell-based", "details": "nerves cultured 2 days, 2% serum, in the presence of GM6001 (50 μM)"}}, "note": "Entries after “also recorded” stand apart in the source; their conditions may differ."}
{"smiles": "CNC(=O)[C@H](Cc1c[nH]c2ccccc12)NC(=O)[C@@H](CC(=O)NO)CC(C)C", "note": "[GM6001]", "values": [{"measurement": "gelatinolytic activity in nerve explants", "setting": "MMP", "value": "nearly undetectable; also recorded: markedly decreased"}, {"measurement": "toxicity", "setting": "Schwann cell cultures", "value": "very low toxicity"}, {"measurement": "increase in mean neurite length over uncultured control nerves", "setting": "[1]", "value": 14, "unit": "%"}]}
